These results are taken from article PMC2787644 (Clinical cancer research : an official journal of the …, 2009).

Where two headings read alike, the source gives them in different places.

By Cmax is commonly meant the peak of the concentration-time curve.

Data set [1] in a line: Flavopiridol plasma pharmacokinetics. In kind it is in vivo. Conditions: human, intravenous, 80 mg/m2, Cmax, cohort 7a (80 mg/m^2).
For data set [2] the following is noted: 70 mg/m^2, combined with irinotecan; cited from earlier work.
Data set [3] is classed as in vivo, human. Conditions: component of flavopiridol + FOLFOX.
In data set [4] the test system is cisplatin-refractory GCT. Conditions: single agent, cited from earlier work.

On to `CN1CC[C@H](c2c(O)cc(O)c3c(=O)cc(-c4ccccc4Cl)oc23)[C@H](O)C1` [flavopiridol, Flavopiridol], for which the values for the Cmax in data set [1] (the 3 patients who experienced a DLT), in data set [1] (the other patients in the cohort) and in data set [2] were 2260 nM, 1450 nM and 2760 ± 540 nM, respectively.
For `O=c1[nH]cc(F)c(=O)[nH]1` [5FU, fluorouracil], the “Maximum tolerated dose (MTD), continuous infusion over 48 hours” value in data set [3] (every 2 weeks (cohort 6a)) is reported as 1800 mg/m^2. In addition, in data set [3] (every 2 weeks (fixed dose)), the “Maximum tolerated dose (MTD), bolus” value is recorded as 400 mg/m^2.
`O=C1[O][Pt]2([NH][C@@H]3CCCC[C@H]3[NH]2)[O]C1=O` [oxaliplatin]: the Overall response rate in data set [4] (60 mg/m^2 weekly on days 1, 8, 15 every 28 days) was 6%. In addition, the Objective response rate in data set [4] (130 mg/m^2 every 2 weeks) is listed as 19%.
